Where a SMILES comes first, the peptide text is derived from it. Bridges are numbered along the chain shown (N, C = ends).
What was measured:
E. coli ML-35p = assay: microbe, parasite or virus in culture; assay type: cell-based, Escherichia coli; conditions: median of 3–6 experiments, value in square brackets = twice the maximal tested concentration
Description: Prior to the “checkerboard” synergy test the minimal inhibitory concentrations (MIC) of individual substances were determined using broth microdilution assay. Testing was performed in 60-well polystyrene Terasaki microplates with V-shaped bottom generally according to the guidelines of the European Committee for Antimicrobial Susceptibility Testing with subtle modifications designed for AMP testing (Tossi et al., [1997]; Wiegand et al., [2008]). Cultivation of bacteria was carried out in 2.1% Müller-Hinton broth at 37°C with shaking. Two-fold serial dilutions of peptides, antibiotics and other antimicrobials were made with 10 mM sodium phosphate buffer, pH 7.4, containing 0.1% of BSA. The plates were preliminary incubated with 0.1% BSA for 1 h at 37°C to reduce a non-specific binding of peptides to the plates. After that BSA was removed, and serial dilutions were added into the plate wells in triplicates followed by the same volume of the suspension of bacterial cells in logarithmic phase of growth in concentration of 1 × 10^6 CFU/ml. After the 18 h overnight incubation at 37°C, the MIC value for each compound was determined as its lowest concentration completely inhibiting the visible growth of bacteria. The final results were calculated as median values based on 3–6 independent experiments.

Human PBMC = assay: MTT-test
Description: To obtain neutrophils and mononuclear cells, whole heparinized blood was diluted with sterile PBS in a 1:1 ratio and carefully inserted into the sterile polystyrene 50 ml tube upon the 5 ml of the sterile Ficoll-400 (Pharmacia, Sweden) with a density of 1.077. The tube was centrifuged at 600 g and 4°C for 40 min. After separation, the mononuclear “ring” located between the blood plasma and Ficoll was collected with a Pasteur pipette, transferred to another tube, and washed twice with 10 ml of sterile PBS by centrifugation for 10 min at 300 g and 4°C.
(§1) We calculated Fractional Effective Concentration Index (FECI), which could be seen as a particular case of the interaction index (I) proposed by Berenbaum ([1977]) or of the similar combination index (CI) proposed by Chou and Talalay ([1983]), according to the equation below: […]
(§2) Here, [MEC A] and [MEC B] are the minimum effective concentrations (MEC) of substances A and B, when they are used alone. […] [A] and [B] are respective concentrations of substances A and B in their combination, where the same statistically significant difference is detected. A non-parametric Mann-Whitney U-test (p < 0.05 or p < 0.01) was used for the mentioned statistical comparison.
(§3) We have chosen the same intervals as that of FICI to determine synergy, additivity, independent action, and antagonism based on the minimal FECI values. However, in case of cytotoxic or hemolytic effect we were interested mainly in testing the possibility of additive or synergistic interaction itself, and not in assessing the exact magnitude of such interaction. Thus, in contrast to the “checkerboard titration” method used for combined antimicrobial activity investigation, studying the combined cytotoxic effect, we considered only two combinations of concentrations for the substances A and B in the mixture: • (½ MEC A + ½ MEC B), which, if found effective, provides the FECI value of 1 (the threshold value for additivity); • (¼ MEC A + ¼ MEC B), which, if found effective, provides the FECI value of 0.5 (the threshold value for synergetic interaction).
(§4) When action on tumor cells was tested in combination with antitumor antibiotic the lower concentrations up to ( 1/16 MEC A + 1/16 MEC B) as in checkerboard titration were additionally examined to assess the magnitude of synergistic effect more precisely. The final conclusion was made based on the three independent experiments.
(§5) Standard MTT-test (Mosmann, [1983]) was used for the examination of the cytotoxic activity of antimicrobial compounds and their combinations toward varied eukaryotic cells. Briefly, cell suspensions in RPMI-1640 prepared as described in Eukaryotic Cells were dispensed into the 96-well microplates (2 × 10^5 cells/well). Then, serial dilutions of AMPs, or other antibiotic compounds, or their mixtures in RPMI-1640 were added. In positive controls (100% cell survival) the according volume of RPMI-1640 without test substances was added instead. The final volume in each well was 100 μl. Negative controls (0% cell survival) were made with 100 μl of the sterile RPMI-1640. The plates were incubated at 37°C under 5% CO2 for 24 h. Four hours before the end of incubation, 10 μl of metabolic marker MTT−3-(4,5-dimethylthiazol-2-yl)-2,5-diphenyltetrazolium bromide (5 mg/ml, diluted in PBS) was added to each well. Incubation was stopped by adding 90 μl of isopropanol containing 0.04 M HCl. Content of the wells was thoroughly mixed, so that the formazan crystals, formed in case of the reduction of MTT in presence of actively metabolizing cells, were fully dissolved. The optical density of the samples was evaluated at 540 nm, subtracting the background absorbance at 690 nm, by SpectraMax 250 Spectrophotometer (Molecular Devices, USA). The experiments were repeated at least three times. In each experiment test samples were made in triplicates and control samples were made in hexaplicates.

Human neutrophils = test system: Human neutrophils
Description: The pellet formed under the Ficoll-400 layer after separation contained both neutrophils and erythrocytes. It was also transferred into a separate tube, where the red blood cells were lysed with 0.83% ammonium chloride solution, which was added in a ratio of 1:4. After the thorough mixing, the suspension was incubated for 10 min at room temperature, and then centrifuged for 10 min at 300 g and 4°C. The resulting precipitate containing neutrophils was washed twice with the sterile PBS.
as §1, §2, §3, §4, §5

[1] = test system: Murine peritoneal macrophages; assay: MTT-test
Description: (§6) Before the cells extraction, mice were sacrificed by cervical dislocation in accordance with the supplement to the Directive 86/609/EEC and its update Directive 2010/63/EU addressing the recommendations for euthanasia of experimental animals (Close et al., [1996]). To obtain peritoneal macrophages, healthy mice were used. The abdominal cavity of each animal was washed with 3 ml of sterile PBS using a Pasteur pipette. The culture of EAC cells was kindly provided by Dr. E.P. Kiseleva (Immunology Department of the Institute of Experimental Medicine, Saint Petersburg, Russia). On the tenth day after the intraperitoneal tumor inoculation, 0.5–1.5 ml of ascitic fluid containing EAC cells was obtained from the abdominal cavity of the animals. Murine cells (normal or tumor) were washed twice with 10 ml of sterile PBS and resuspended in RPMI-1640 medium as described above for human neutrophils and PBMC.
as §1, §2, §3, §4
as §5, with “dissolved.” for “dissolved. The optical density of the samples was evaluated at 540 nm, subtracting the background absorbance at 690 nm, by SpectraMax 250 Spectrophotometer (Molecular Devices, USA). The experiments were repeated at least three times. In each experiment test samples were made in triplicates and control samples were made in hexaplicates.”

K562 = test system: K562
Description: (§7) The human erythromyeloid leukemia cell line K562 was obtained from the collection of the Institute of Cytology RAS (Saint Petersburg, Russia) and cultured in RPMI-1640 medium containing gentamicin (100 μg/ml) and 10% of fetal bovine serum at 37°C, 5% CO2. […] Drug resistance was maintained by monthly selection with the antibiotic (2 μg/ml in the culturing medium). Doxorubicin was removed from the medium 3 days prior to beginning any experiments. Before the testing K562 cells were washed twice with PBS and resuspended in RPMI-1640 in the same way as the other cell types.
as §1, §2, §3, §4
as §5, with “dissolved.” for “dissolved. The optical density of the samples was evaluated at 540 nm, subtracting the background absorbance at 690 nm, by SpectraMax 250 Spectrophotometer (Molecular Devices, USA). The experiments were repeated at least three times. In each experiment test samples were made in triplicates and control samples were made in hexaplicates.”

[2] = test system: doxorubicin-resistant K562 tumor cells; conditions: for MEC: doxorubicin-resistant K562 cell line; for enhancement in MEC values comparing susceptible and resistant cell lines: doxorubicin-resistant vs susceptible K562
Description: as §7, §1, §2, §3, §4
as §5, with “dissolved.” for “dissolved. The optical density of the samples was evaluated at 540 nm, subtracting the background absorbance at 690 nm, by SpectraMax 250 Spectrophotometer (Molecular Devices, USA). The experiments were repeated at least three times. In each experiment test samples were made in triplicates and control samples were made in hexaplicates.”

Murine EAC = assay: MTT-test; assay type: cell-based, mice; conditions: Murine EAC tumor cells, 24 h
Description: as §6, §1, §2, §3, §4
as §5, with “dissolved.” for “dissolved. The optical density of the samples was evaluated at 540 nm, subtracting the background absorbance at 690 nm, by SpectraMax 250 Spectrophotometer (Molecular Devices, USA). The experiments were repeated at least three times. In each experiment test samples were made in triplicates and control samples were made in hexaplicates.”

Compound | MIC (E. coli ML-35p) | MEC of cytotoxic action (Human PBMC) [µM] | MEC of cytotoxic action (Human neutrophils) [µM] | MEC of cytotoxic action [1] [µM] | minimal FECI (combined cytotoxic action) (K562) | MEC of cytotoxic action (K562; K562 tumor cells (doxorubicin-sensitive), MTT, 24 h) [µM] | minimal FECI (combined cytotoxic action) [2] | MEC [2] | enhancement in MEC values comparing susceptible and resistant cell lines [2] [times] | MEC of cytotoxic action (Murine EAC) [µM] | MEC (K562; susceptible K562 cell line) [µg/mL]
CC[C@H](C)[C@@H]1NC(=O)[C@H](CC(C)C)NC(=O)[C@@H]2CSSC[C@@H]3NC(=O)[C@H](CO)NC(=O)[C@@H](NC(=O)[C@@H](N)C(C)C)CSSC[C@@H](C(=O)N[C@H](C(=O)N[C@@H](CCCNC(=N)N)C(=O)N[C@H](C(=O)O)C(C)C)[C@@H](C)O)NC(=O)[C@H](CSSC[C@H](NC(=O)[C@H](Cc4ccccc4)NC(=O)[C@H](C(C)C)NC(=O)[C@H](CC(C)C)NC(=O)[C@H](CCCNC(=N)N)NC3=O)C(=O)N[C@@H](CCCNC(=N)N)C(=O)N[C@@H](CCCNC(=N)N)C(=O)N[C@@H]([C@@H](C)O)C(=O)N[C@@H](CCC(=O)O)C(=O)N[C@@H](CC(C)C)C(=O)N[C@@H](CCCNC(=N)N)C(=O)N[C@@H](C(C)C)C(=O)NCC(=O)N[C@@H](CC(N)=O)C(=O)N2)NC(=O)[C@H](Cc2ccc(O)cc2)NC(=O)[C@H]([C@@H](C)O)NC(=O)[C@H](Cc2ccccc2)NC(=O)[C@H](CO)NC(=O)[C@H](C(C)C)NC(=O)CNC(=O)CNC1=O [HNP-4] (H-VCSCRLVFCRRTELRVGNCLIGGVSFTYCCTRV-OH; disulfide 2-30, 4-19, 9-29 (inferred); N-terminus and C-terminus assumed) | >100 [200] μM | – | – | – | – | – | – | – | – | – | –
CC(C)C[C@H](NC(=O)[C@H](CCCNC(=N)N)NC(=O)CNC(=O)CNC(=O)[C@@H](N)CCCNC(=N)N)C(=O)N[C@H]1CSSC[C@@H](C(=O)N[C@H](C(=O)NCC(=O)N[C@@H](CCCNC(=N)N)C(N)=O)C(C)C)NC(=O)[C@H](C(C)C)NC(=O)[C@@H]2CSSC[C@H](NC(=O)[C@H](Cc3ccc(O)cc3)NC1=O)C(=O)N[C@@H](CCCNC(=N)N)C(=O)N[C@@H](CCCNC(=N)N)C(=O)N[C@@H](CCCNC(=N)N)C(=O)N[C@@H](Cc1ccccc1)C(=O)N2 [PG-1, protegrin 1] | – | 5.0 | 2.5 | 2.5 | 0.25 | 1.25 | 0.38 | 5.0 µM | 4 | 1.25 | –
COc1cccc2c1C(=O)c1c(O)c3c(c(O)c1C2=O)C[C@@](O)(C(=O)CO)C[C@@H]3O[C@H]1C[C@H](N)[C@H](O)[C@H](C)O1 [doxorubicin] | – | – | – | – | – | – | – | 100 µg/mL | 100 | – | 1

From PMC6503114, “Application of Antimicrobial Peptides of the Innate Immune System in Combination With Conventional Antibiotics—A Novel Way to Combat Antibiotic Resistance?” (Frontiers in Cellular and Infection Microbiology, 2019)
